One data set has as its system Mecp2-null mice. As to conditions: mouse, in vivo; cited from earlier work.
The next data set has as its system patients. As to conditions: human, in vivo; cited from earlier work.
The target in another data set is Sigma 2 (Homo sapiens, UniProt Q5BJF2). As to conditions: cited from earlier work.
For a further data set, the system named is dopamine receptors. As to conditions: cited from earlier work.
For data set [1] the following is noted: in vivo; cited from earlier work.
The test system of data set [2] is opioid addiction syndrome. As to conditions: in vivo; cited from earlier work.
The test system of a further data set is adult patients. The conditions noted are these: human, in vivo; cited from earlier work.
The target in a further data set is D2L human dopamine GPCR (Homo sapiens, UniProt P14416). The class given is cell-based.
Another data set has as its target Opiate μ (Homo sapiens, UniProt P35372). The format is binding.
The target of data set [3] is human delta (DOP) receptor (Homo sapiens, UniProt P41143). The class given is cell-based.
The conditions of data set [4]: cited from earlier work.

“Also recorded” adds a separate entry of the source.

Chain of D2L human dopamine GPCR (P14416 whole entry): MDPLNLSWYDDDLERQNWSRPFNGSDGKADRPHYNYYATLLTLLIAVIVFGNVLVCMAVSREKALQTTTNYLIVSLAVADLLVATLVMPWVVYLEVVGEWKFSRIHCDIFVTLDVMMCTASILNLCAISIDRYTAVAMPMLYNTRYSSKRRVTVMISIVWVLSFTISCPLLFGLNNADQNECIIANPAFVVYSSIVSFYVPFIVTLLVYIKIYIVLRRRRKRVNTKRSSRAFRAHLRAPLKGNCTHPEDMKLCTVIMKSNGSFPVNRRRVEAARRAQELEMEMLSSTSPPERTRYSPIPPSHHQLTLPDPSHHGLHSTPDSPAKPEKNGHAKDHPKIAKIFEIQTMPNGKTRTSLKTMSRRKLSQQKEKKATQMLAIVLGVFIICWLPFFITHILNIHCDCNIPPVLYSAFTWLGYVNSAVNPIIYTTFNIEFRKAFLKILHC
Chain of Opiate μ (P35372 whole entry): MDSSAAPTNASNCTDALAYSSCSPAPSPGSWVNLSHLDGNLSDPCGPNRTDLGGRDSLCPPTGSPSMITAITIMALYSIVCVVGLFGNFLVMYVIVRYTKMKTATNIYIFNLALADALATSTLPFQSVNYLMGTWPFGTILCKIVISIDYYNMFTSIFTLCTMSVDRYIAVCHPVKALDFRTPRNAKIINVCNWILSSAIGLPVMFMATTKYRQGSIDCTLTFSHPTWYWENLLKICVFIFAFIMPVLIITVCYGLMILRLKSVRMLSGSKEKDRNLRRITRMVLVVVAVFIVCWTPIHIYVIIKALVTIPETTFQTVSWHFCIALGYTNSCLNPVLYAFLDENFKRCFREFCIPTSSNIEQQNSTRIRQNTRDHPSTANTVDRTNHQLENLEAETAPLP
Chain of human delta (DOP) receptor (P41143 whole entry): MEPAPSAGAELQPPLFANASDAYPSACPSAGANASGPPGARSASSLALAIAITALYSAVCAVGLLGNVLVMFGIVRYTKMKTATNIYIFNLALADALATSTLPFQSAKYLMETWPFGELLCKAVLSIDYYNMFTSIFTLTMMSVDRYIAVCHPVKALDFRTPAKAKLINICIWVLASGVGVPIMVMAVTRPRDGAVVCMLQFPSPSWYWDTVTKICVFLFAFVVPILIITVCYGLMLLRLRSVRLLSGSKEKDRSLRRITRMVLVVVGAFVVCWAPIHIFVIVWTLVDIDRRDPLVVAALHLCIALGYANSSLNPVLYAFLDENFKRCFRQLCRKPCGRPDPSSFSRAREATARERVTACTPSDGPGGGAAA
Chain of Sigma 2 (Q5BJF2 whole entry): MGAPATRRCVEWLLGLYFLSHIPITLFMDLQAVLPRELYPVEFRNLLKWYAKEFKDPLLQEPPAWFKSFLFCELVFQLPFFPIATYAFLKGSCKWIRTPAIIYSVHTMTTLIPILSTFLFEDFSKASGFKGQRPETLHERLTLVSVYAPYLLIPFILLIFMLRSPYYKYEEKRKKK

For `CNC1(c2ccccc2Cl)CCCCC1=O` (stereo not drawn) [Ketamine, 2-(2-chlorophenyl)-2-(methylamino)-cyclohexanone], in the data set on Mecp2-null mice, the “efficacy by start of treatment” value was “Treatment from day 30 was not effective; also recorded: treatment from day 15 showed some efficacy”, the improved survival is recorded as 50% and the survival after treatment is listed as 50%. In addition, the “patients who develop an emergence phenomenon” value in the data set on patients was “More than half the patients”. Further, the “concentration at which sigma2 receptors are bound” value at Sigma 2 is “mM concentrations”. In the data set with dopamine receptors, the “affinity for / effect on dopamine receptors” value is “not shown any affinity for dopamine 2 receptors; also recorded: do not appear to have a direct effect on dopamine receptors”. The half-life entry in data set [1] was “approximately 45 minutes”.
Consider `CC[C@H]1C[C@H]2C[C@H]3c4[nH]c5ccc(OC)cc5c4CCN(C2)[C@@H]13` [Ibogaine], for which the “drug craving and depressive symptoms” value in [2] is “decreases drug craving and improves depressive symptoms”.
For the compound `c1ccc(C2(N3CCCCC3)CCCCC2)cc1` [PCP, 1-(1-phencyclohexyl) piperidine], in the data set on adult patients, the “adult patients presenting with the classic toxidrome of PCP intoxication” value is on record as “Over 50%”.
In the case of `NC1(c2ccccc2Cl)CCCCC1=O` (racemic) [NorKetamine, (R,S)-Norketamine], at D2L human dopamine GPCR, the “DRD2L Agonist” value is reported as “Not active” and the “ability to bind dopamine 2 receptors” value was “does not appear to bind Dopamine 2 receptors”. Also, on Opiate μ, the “Opiate μ” value was “Not active” and the “binding to Opioid u receptors” value is “does not bind Opioid u receptors”. Moreover, the “Opiate delta1R (antagonist)” value in data set [3] is recorded as “Not active”. In addition, the “affinity for / effect on dopamine receptors” value with dopamine receptors is on record as “do not appear to have a direct effect on dopamine receptors”. In [4], the “Water Solubility of Free drug” value was 178 µg/mL.
For the compound `NCCc1c[nH]c2ccccc12` [Tryptamine], the “Water Solubility of Free drug” value in data set [4] was 1340 µg/mL.
Turning to `NCCc1c[nH]c2ccc(O)cc12` [5HT, 5-hydroxy tryptamine], the “Water Solubility of Free drug” value in data set [4] was 2500 µg/mL.
